According to patent US20190328721A1, “METHOD OF ACTIVATING DENDRITIC CELLS” (KOREA INSTITUTE OF SCIENCE AND TECHNOLOGY, priority 2018, published 2019):

Tests used:
B16F10-Ova cells [1] = experiment: Annexin V flow cytometry for direct death of cancer cells; type: cell-based, mouse; settings: 30 μM, 24 hours
Description: (§1) Specifically, the present inventors treated CT26.CL25 cells and B16F10-Ova cells with 30 μM of the ROCK inhibitor Y27632 for 24 hours, and performed flow cytometry analysis using FITC-anti-Annexin V antibodies (Abcam, USA). On the other hand, cells were treated with 10 μg of TRAIL, 0.25 μM of doxorubicin, 2.5 μM of doxorubicin, or 25 μM of doxorubicin, respectively, for 4 hours, as positive controls.

CT26.CL25 cells = experiment: as above; type: cell-based, mouse; settings: 30 μM, 24 hours
Description: as §1

[2] = system: macrophages (F4/80+ cells) and dendritic cells (CD11c+ cells); experiment: In vivo phagocytosis of injected apoptotic thymocytes by spleen phagocytes; design: species or system mice; settings: 10 mg/kg intraperitoneally; spleen after 1 hour
Description: The present inventors investigated whether the phagocytosis caused by the ROCK inhibitor could be enhanced not only in vitro but also in vivo. For this purpose, thymocytes stained with CFSE (carboxyfluorescein succinimidyl ester, Thermo Fisher Scientific, Inc., USA) and in which apoptosis was induced by 1 μM dexamethasone were injected to the blood vessel of mice who were pre-injected with 10 mg/kg of Y27632 intraperitoneally. After 1 hour, the spleen was extracted from the mice and the spleen was single celled. The phagocytic activities of macrophages (F4/80^+ cells) and dendritic cells (CD11c^+ cells) against apoptotic thymocytes were analyzed (FIGS. 7B and 7C).

CT26.CL25 cancer cells = experiment: CT26.CL25 tumor model; type: in vivo, Balb/c wild type mice; settings: 10 mg/kg intravenous
Description: (§2) CT26.CL25 cancer cells (1×10^6) expressing β-galactosidase were subcutaneously injected into the left back of a Balb/c wild type mice to generate a tumor model Similarly, an […] tumor model was prepared by subcutaneously injecting melanoma cell line B16F10-Ova cells (5×10^5) into the left back of C57L/B6 wild-type mice to induce cancer.
(§3) In the case of the CT26.CL25 cancer cell line, 6 days after the injection of the cancer cells, and in the case of B 16F10-Ova, 9 days after the injection of the cancer cells, Y27632 was administered by intravenous injection at a dose of 10 mg/kg as indicated in FIG. 8a. In the case of the CT26.CL25 model, the mice were sacrificed on the 22nd day after the injection of the cancer cells and in the case of the B16F10-Ova cancer model, the mice were sacrificed on the 20th day after the injection of the cancer cells (FIG. 8A). As a negative control, phosphate-buffered saline was administered instead of Y27632.
(§4) The tumor tissues of the mice were excised, an ex vivo image was taken and the tumor tissue were weighed (FIG. 8B). In addition, before the mice were sacrificed, changes in body weights were measured at intervals of 3 days from the 6th day of the cancer cell injection in the CT26.CL25 cancer model and at intervals of 3 days from the 9th day in the B16F10-Ova cancer model (FIG. 8c). Length (L) and width (W) of the tumor tissues were measured, and the volume of the tumor tissues over time was calculated using the following formula (FIGS. 8D and 8E):
(§5) The volume of tumor tissue (V[mm^3])=(L[mm])[…] (W[mm])^2×0.5.

B16F10-Ova cells [3] = experiment: B16F10-Ova tumor model; type: in vivo, C57L/B6 wild-type mice; settings: 10 mg/kg intravenous
Description: as §2, §3, §4, §5

IFN-γ = IFN-γ ELISA of draining lymph node cells given β-gal peptide; type: in vivo, mice
Description: After draining lymph node was isolated from the tumor model animals, 5 μg/ ? of β-gal peptide (TPHPARIGL, SEQ ID NO: 1, including the naturally processed H-2 Ld limited epitope comprising amino acid residue 876 to 884 of β-galactosidase) which simulates β-gal peptide, a model antigen present in CT26.CL25 cells, or PBS were administered and the expression of IFN-γ was measured by IFN-γ ELISA kit (R&D Systems, Inc., USA).

[4] = system: bone marrow-derived dendritic cells (BMDC); experiment: Cross presentation of H-2Kb-Ova by BMDCs in vitro; type: cell-based, mice; settings: Y27632 30 μM, 1 hour on BMDCs; cancer cells doxorubicin treated or untreated
Description: Furthermore, the inventors investigated whether the cross presentation of dendritic cells was promoted by the combination treatment of doxorubicin and Y27632. To this end, the present inventors used 30 μM of Y27632 to pretreat bone marrow-derived dendritic cells (BMDC) stained with CellTracker CMFDA (Thermo Fisher Scientific, USA) for 1 hour, followed by treatment with doxorubicin treated B16F10-Ova cells or doxorubicin untreated B16F10-Ova cells. After the co-culture, floating cancer cells were removed by withdrawing supernatant. Cross presentation activity, which is one of functions of dendritic cells, was analyzed via flow cytometry analysis using an antibody capable of detect a cancer antigen (H-2K^b-Ova) capable of activating T cells, through flow cytometry analysis using an antibody (H-2K^b monoclonal antibody, Invitrogen, USA).

[5] = system: bone marrow-derived dendritic cells (BMDCs); experiment: Phagocytosis of cancer cells by bone marrow-derived dendritic cells in vitro; type: cell-based, mice; settings: 30 μM, 1 hour

In the case of `C[C@@H](N)[C@H]1CC[C@H](C(=O)Nc2ccncc2)CC1` [Y27632], the “death of cancer cells (Annexin V)” value (B16F10-Ova cells [1]) is reported as “not to increase the death of cancer cells”, the “death of cancer cells (Annexin V)” value (CT26.CL25 cells) is reported as “not to increase the death of cancer cells” and the “phagocytosis of spleen dendritic cells against apoptotic thymocytes” value [2] is reported as “significantly enhanced”. The “phagocytosis of spleen macrophages against apoptotic thymocytes” value [2] was “significantly enhanced”, the “body weight of the mice” value (CT26.CL25 cancer cells) was “no significant change” and the “volume of the tumors” value (CT26.CL25 cancer cells) was “significantly decreased”. The “weight of the tumors” value (CT26.CL25 cancer cells; day 22) was “significantly decreased”, the “body weight of the mice” value (B16F10-Ova cells [3]) was “no significant change” and the “volume of the tumors” value (B16F10-Ova cells [3]) was “significantly decreased”. For the same compound, the “weight of the tumors” value (B16F10-Ova cells [3]; day 20) was “significantly decreased”, the “IFN-γ level in draining lymph node” value (IFN-γ; PBS liposome-treated group) was “increased” and the “INF-γ expression in CD8-negative cells of draining lymph node” value (IFN-γ; mouse, in vivo) was “no difference in INF-γ expression”. For the same compound, the “amount of IFN-γ in CD8-positive cells of draining lymph node” value (IFN-γ; mouse, in vivo) was “increased”, the “cross presentation (H-2Kb-Ova) of BMDCs co-cultured with B16F10-Ova cells” value [4] was “increased the cross-presentation” and the “phagocytosis of BMDCs against non-immunogenic apoptosis-induced cancer cells by cisplatin” value ([5]; CT26.CL25 or B16F10-Ova) was “increased similarly to that by doxorubicin treatment”. For the same compound, the “phagocytosis of BMDCs against necrosis-induced cancer cells” value ([5]; necrosis at 55° C. for 30 minutes) was “increased similarly to that by doxorubicin treatment”.
